Columns and labels:
[1] = biological target: T1, FROUNT-CCR2 interaction (Homo sapiens, UniProt Q9BW27); assay: HTRF binding inhibition assay, FROUNT-CCR2 interaction
T1 construct: made in house
T1 sequence (Q9BW27 500-656): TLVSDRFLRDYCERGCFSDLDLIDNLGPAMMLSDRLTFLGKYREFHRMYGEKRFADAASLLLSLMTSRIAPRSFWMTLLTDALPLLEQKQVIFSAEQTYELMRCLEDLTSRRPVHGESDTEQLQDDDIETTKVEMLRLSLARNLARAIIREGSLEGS
Protocol: (§1) For the screening, a compound library containing 131,200 kinds of compounds dissolved in DMSO at a concentration of 10 mM or 2 mM (obtained from Open Innovation Center for Drug Discovery, the University of Tokyo) was used. The HTRF assay was carried out using a 384-well low-dose white microplate (Corning Coaster; catalog number 3676). In each well, 4 μL of a solution of 20 nM GST fusion FROUNT protein (a recombinant polypeptide prepared by fusing GST to aa 500-656 of SEQ ID NO:2), and DMSO or test compounds were mixed with a binding buffer (10 mM HEPES [pH 7.4], 0.2 M potassium fluoride, 10 mM NaCl, 0.1% Tween 20, and 0.5% bovine serum albumin [BSA]), and the plate was incubated at room temperature for 30 minutes. […]. After incubation at room temperature for 20 hours, the HTRF signal was measured at emission wavelengths of 620 nm and 665 nm using a multilabel counter EnVision (PerkinElmer).
(§2) By the same HTRF assay as described above, the abilities of disulfiram to inhibit the FROUNT-CCR2 interaction or the FROUNT-CCR5 interaction were investigated. As the CCR5 pro-C peptide, the 16 residues […] (SEQ ID NO:4) in the C-terminal region of CCR5 was used. As a control, the p53-MDM2 interaction (which is inhibited by an MDM-2-specific inhibitor Nutlin), which is also a helix peptide-protein interaction like the interaction between FROUNT and CCR2 or CCR5 but is not related thereto, was used.

[2] = biological target: T2, FROUNT-CCR5 interaction (Homo sapiens, UniProt Q9BW27); assay: HTRF binding inhibition assay, FROUNT-CCR5 interaction; conditions: result in words
T2 construct: made in house
T2 sequence (Q9BW27 500-656): T1 sequence (Q9BW27 500-656)
Protocol: as §1, §2

[3] = biological target: T3, Full-length FROUNT protein (Homo sapiens, UniProt Q9BW27); assay: Surface plasmon resonance binding to FROUNT; conditions: SPR
T3 construct: made in house
T3 sequence (Q9BW27 1-656): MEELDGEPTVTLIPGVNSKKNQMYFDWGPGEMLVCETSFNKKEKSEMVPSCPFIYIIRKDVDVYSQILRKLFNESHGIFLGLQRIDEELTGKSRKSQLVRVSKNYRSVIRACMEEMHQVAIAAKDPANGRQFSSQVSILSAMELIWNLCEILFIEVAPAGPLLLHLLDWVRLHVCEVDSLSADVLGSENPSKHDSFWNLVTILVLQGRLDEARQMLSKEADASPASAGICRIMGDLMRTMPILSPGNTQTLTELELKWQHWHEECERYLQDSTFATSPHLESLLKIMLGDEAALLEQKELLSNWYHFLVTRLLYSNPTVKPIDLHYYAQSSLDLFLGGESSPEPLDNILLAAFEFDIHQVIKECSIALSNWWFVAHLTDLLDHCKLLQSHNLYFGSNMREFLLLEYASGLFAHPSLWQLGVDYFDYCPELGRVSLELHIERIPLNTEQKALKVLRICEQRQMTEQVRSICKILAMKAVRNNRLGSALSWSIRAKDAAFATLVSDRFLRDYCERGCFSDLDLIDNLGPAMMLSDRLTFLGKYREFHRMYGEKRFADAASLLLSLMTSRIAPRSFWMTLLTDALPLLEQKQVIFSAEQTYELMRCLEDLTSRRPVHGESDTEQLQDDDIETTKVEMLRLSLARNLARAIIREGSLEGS
Protocol: Interactions between FROUNT and compounds in the library were analyzed by surface plasmon resonance (SPR) using Biacore […] (GE Healthcare). Full-length FROUNT protein (SEQ ID NO:2) (Esaki, K. et al. Protein Expr Purif 77, 86-91, (2011)) was immobilized on a CM5 sensor chip. Solutions of disulfiram prepared by serial dilution in HBS-EP buffer containing 2% DMSO (GE Healthcare) were applied to the sensor chip at a flow rate of 30 μL/min. The resonance unit (RU) was measured during the process from the binding to the washing to analyze the binding dynamics. Biacore T100 evaluation software was used to carry out solvent correction for DMSO.

[4] = test system: B16F10 melanoma cells; assay: LDH cytotoxicity assay, B16F10 melanoma cells; format: cell-based; conditions: LDH release, 72 hours
Protocol: The cytotoxicity of inhibitors was tested by using LDH Cytotoxicity Detection Kit (TaKaRa) according to the manufacturer's instructions. Briefly, tumor cells were cultured in the presence or absence of an agent (disulfiram or 5FU) for 72 hours, and the culture supernatant was then collected and tested for the concentration of lactate dehydrogenase released from damaged cells. For measurement of cell proliferation, cells were incubated in a plate well together with an inhibitor for 48 hours. During the last 30 minutes, WST-1 (Dojindo Laboratories) was added to the culture liquid, and the absorbance of each well was measured at 450 nm versus 650 nm reference using EnVision (PerkinElmer) to detect the formazan level.

[5] = biological target: T4, aldehyde dehydrogenase (ALDH) (Rattus norvegicus, UniProt P11884); conditions: Excerpt from Alcohol Clin Exp Res 1996.20.595-; read-out: ALDH inhibition; cited from earlier work
T4 sequence (P11884 20-519): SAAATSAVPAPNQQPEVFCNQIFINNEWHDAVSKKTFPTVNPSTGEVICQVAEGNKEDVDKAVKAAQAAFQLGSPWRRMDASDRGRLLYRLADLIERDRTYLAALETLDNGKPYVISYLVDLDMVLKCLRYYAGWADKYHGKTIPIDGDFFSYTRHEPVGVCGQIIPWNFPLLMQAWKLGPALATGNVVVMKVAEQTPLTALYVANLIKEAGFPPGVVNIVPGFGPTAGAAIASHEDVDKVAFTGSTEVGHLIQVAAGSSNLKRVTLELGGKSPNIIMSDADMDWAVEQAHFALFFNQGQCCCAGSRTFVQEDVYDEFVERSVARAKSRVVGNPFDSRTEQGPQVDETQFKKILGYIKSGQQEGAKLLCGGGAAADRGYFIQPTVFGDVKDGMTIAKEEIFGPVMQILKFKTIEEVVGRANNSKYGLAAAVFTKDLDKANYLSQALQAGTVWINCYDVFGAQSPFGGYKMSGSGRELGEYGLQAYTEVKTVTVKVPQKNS

With `CCN(CC)C(=S)SSC(=S)N(CC)CC` [DSF, disulfiram] the “inhibitory action against FROUNT-CCR2 relative to p53-MDM2” value [1] was “about 100 times”, the “inhibition of FROUNT-CCR2 interaction” value ([1]; HTRF, result in words) was “selectively inhibited” and the IC50 ([1]; HTRF, read-out: FROUNT inhibition (IC50 against FROUNT-CCR2)) was 0.042 µM. For the same molecule, the “inhibition of FROUNT-CCR5 interaction” value [2] was “selectively inhibited”, the “binding to FROUNT protein” value [3] was “directly bound” and the “cytotoxic activity on B16F10 melanoma cells” value [4] was “did not show any action”. The IC50 [5] was 7.4 µM.
